We go through 21 compounds from patent US20220306617A1, “SUBSTITUTED 1,3-PHENYL HETEROARYL DERIVATIVES AND THEIR USE IN THE TREATMENT OF DISEASE” (NOVARTIS AG, priority 2019, published 2022).

The assay has as its target T1, abc isoform of human TMEM16A channel expressed in CHO cells (Homo sapiens, UniProt Q5XXA6, DEL476-501).
T1 construct: expressed in transfected cells; host or cells: CHO cells, doxycycline-inducible expression under Blasticidin/Zeocin selection
T1 sequence (Q5XXA6 with tags, fused parts or gaps isoform Q5XXA6-5 DEL539-564): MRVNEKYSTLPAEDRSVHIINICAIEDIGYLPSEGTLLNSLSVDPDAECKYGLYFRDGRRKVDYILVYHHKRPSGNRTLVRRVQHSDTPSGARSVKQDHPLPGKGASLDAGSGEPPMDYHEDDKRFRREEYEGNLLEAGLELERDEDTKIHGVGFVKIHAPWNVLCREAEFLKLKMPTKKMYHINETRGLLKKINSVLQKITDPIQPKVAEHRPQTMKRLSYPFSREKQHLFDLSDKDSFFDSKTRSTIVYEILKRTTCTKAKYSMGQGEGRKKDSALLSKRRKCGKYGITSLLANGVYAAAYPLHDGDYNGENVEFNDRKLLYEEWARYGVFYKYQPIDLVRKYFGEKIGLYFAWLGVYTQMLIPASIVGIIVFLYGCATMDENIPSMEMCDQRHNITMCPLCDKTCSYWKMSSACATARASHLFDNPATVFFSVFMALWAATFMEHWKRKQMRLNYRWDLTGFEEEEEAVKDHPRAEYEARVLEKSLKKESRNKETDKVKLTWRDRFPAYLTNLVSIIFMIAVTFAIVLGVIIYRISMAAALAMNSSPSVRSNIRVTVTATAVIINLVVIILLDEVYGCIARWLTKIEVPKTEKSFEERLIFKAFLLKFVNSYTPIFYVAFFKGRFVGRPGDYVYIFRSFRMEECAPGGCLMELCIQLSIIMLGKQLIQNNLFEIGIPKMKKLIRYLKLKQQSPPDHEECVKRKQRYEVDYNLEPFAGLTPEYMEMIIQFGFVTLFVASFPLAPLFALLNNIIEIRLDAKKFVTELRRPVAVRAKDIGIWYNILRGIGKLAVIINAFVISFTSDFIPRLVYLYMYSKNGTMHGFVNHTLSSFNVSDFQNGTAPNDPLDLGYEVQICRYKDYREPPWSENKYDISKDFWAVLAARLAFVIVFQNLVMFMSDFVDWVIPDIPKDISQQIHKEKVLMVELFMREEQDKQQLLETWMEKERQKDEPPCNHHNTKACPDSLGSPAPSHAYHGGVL
As to the kind of experiment: Automated patch clamping (QPatch) assay to measure TMEM16A activity in whole-cell. Conditions: for EC50: CHO cells expressing human TMEM16A (abc), whole-cell automated patch clamp, Hill fit, read-out: TMEM16A QPATCH assay EC50 V3 EC50; for Emax: CHO, maximum current at highest dose relative to reference potentiator at maximal concentration (upper limit) and vehicle (lower limit), read-out: TMEM16A QPATCH assay EC50 V3 Assay Window (% TMEM16A max activation). The format is cell-based. Summed up:
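CHO cells with doxycycline-induced (1 μg/mL, 18-24 h) human TMEM16A abc isoform; QPatch whole-cell recording, hold −70 mV, step +70 mV 1500 ms, then −90 to +70 mV ramp. Compounds in 0.3% DMSO; EC50 by Hill fit; % max activation relative to vehicle baseline and reference potentiator maximum.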
Background: Patch clamp records ionic current or voltage across a cell membrane.

Molecules are shown by their SMILES.

Consider `C[C@H](NC(=O)c1nnc(-c2cccc(-c3ncc(C(=O)NC45CC6CC(CC(C6)C4)C5)o3)c2)[nH]1)C1CC1` [Example 12.16, (S)-N-(Adamantan-1-Yl)-2-(3-(5-((1-Cyclopropylethyl)Carbamoyl)-4H-1,2,4-Triazol-3-Yl)Phenyl)Oxazole-5-Carboxamide], for which the EC50 (in general, the midpoint of the concentration-response curve) is 420 nM and the Emax was found to be 85%.
Taken in the same sequence, the figures for `COC(=O)[C@H](CC1CCCCC1)NC(=O)c1cnc(-c2cccc(-c3nnc(C(=O)N[C@@H](C)C4CC4)[nH]3)c2)o1` [Example 12.17, (S)-Methyl 3-Cyclohexyl-2-(2-(3-(5-(((S)-1-Cyclopropylethyl)Carbamoyl)-4H-1,2,4-Triazol-3-Yl)Phenyl)Oxazole-5-Carboxamido)Propanoate] were 470 nM and 77%.
Taken in the same sequence, the figures for `C[C@H](NC(=O)c1cnc(-c2cccc(-c3nnc(C(=O)N[C@H](C)C4CC4)[nH]3)c2)o1)C1CC1` [Example 13.0, N-((S)-1-Cyclopropylethyl)-2-(3-(5-(((R)-1-Cyclopropylethyl)Carbamoyl)-4H-1,2,4-Triazol-3-Yl)Phenyl)Oxazole-5-Carboxamide] were 310 nM and 74%.
`C[C@@H](NC(=O)c1nnc(-c2cccc(-c3ncc(C(=O)NC(C4CC4)C4CC4)o3)c2)[nH]1)C1CC1` [Example 13.1, (R)-2-(3-(5-((1-Cyclopropylethyl)Carbamoyl)-4H-1,2,4-Triazol-3-Yl)Phenyl)-N-(Dicyclopropylmethyl)Oxazole-5-Carboxamide]: the EC50 came to 110 nM and the Emax stood at 88%.
Taken in the same sequence, the figures for `C[C@@H](NC(=O)c1n[nH]c(-c2cccc(-c3ncc(C(=O)N[C@H](C)C4CC4)o3)c2)n1)C1CC1` [Example 13.2, N-((R)-1-Cyclopropylethyl)-2-(3-(3-(((R)-1-Cyclopropylethyl)Carbamoyl)-1H-1,2,4-Triazol-5-Yl)Phenyl)Oxazole-5-Carboxamide] were 650 nM and 77%.
Taken in the same sequence, the figures for `CCC(CC)NC(=O)c1nnc(-c2cccc(-c3ncc(C(=O)NC(CC)CC)o3)c2)[nH]1` [Example 13.3, N-(Pentan-3-Yl)-2-(3-(5-(Pentan-3-Ylcarbamoyl)-1 H-1,2,4-Triazol-3-Yl)Phenyl)Oxazole-5-Carboxamide] were 50 nM and 95%.
Taken in the same sequence, the figures for `C[C@H](NC(=O)c1cnc(-c2cccc(-c3nnc(C(=O)NC4CCC(F)(F)CC4)[nH]3)c2)o1)C1CC1` [Example 13.4, (S)-N-(1-Cyclopropylethyl)-2-(3-(5-((4,4-Difluorocyclohexyl)Carbamoyl)-4H-1,2,4-Triazol-3-Yl)Phenyl)Oxazole-5-Carboxamide] were 940 nM and 80%.
For `CCC(CC)NC(=O)c1cnc(-c2cccc(-c3nnc(C(=O)NCC4CCCCC4)[nH]3)c2)o1` [Example 13.5, 2-(3-(5-((Cyclohexylmethyl)Carbamoyl)-4H-1,2,4-Triazol-3-Yl)Phenyl)-N-(Pentan-3-Yl)Oxazole-5-Carboxamide], the EC50 was found to be 30 nM and the Emax was 88%.
Taken in the same sequence, the figures for `CCOC(=O)[C@@H](NC(=O)c1nnc(-c2cccc(-c3ncc(C(=O)N[C@@H](C)C4CC4)o3)c2)[nH]1)C(C)C` [Example 13.6, (S)-Ethyl 2-(5-(3-(5-(((S)-1-Cyclopropylethyl)Carbamoyl)Oxazol-2-Yl)Phenyl)-4H-1,2,4-Triazole-3-Carboxamido)-3-Methylbutanoate] were 370 nM and 97%.
Taken in the same sequence, the figures for `COC(=O)[C@@H](NC(=O)c1nc(-c2cccc(-c3ncc(C(=O)NC(C4CC4)C4CC4)o3)c2)n[nH]1)C(C)C` [Example 13.7, (S)-Methyl 2-(3-(3-(5-((Dicyclopropylmethyl)Carbamoyl)Oxazol-2-Yl)Phenyl)-1H-1,2,4-Triazole-5-Carboxamido)-3-Methylbutanoate] were 470 nM and 121%.
On to `CCC(CC)NC(=O)c1cnc(-c2cccc(-c3nnc(C(=O)N[C@@H](C)C4CC4)[nH]3)c2)o1` [Example 14.0, (S)-2-(3-(5-((1-Cyclopropylethyl)Carbamoyl)-4H-1,2,4-Triazol-3-Yl)Phenyl)-N-(Pentan-3-Yl)Oxazole-5-Carboxamide], for which the EC50 turned out to be 580 nM and the Emax came to 177%.
Taken in the same sequence, the figures for `CCC(CC)NC(=O)c1cnc(-c2cccc(-c3nc(C(=O)NC(CC)CC)n(CCN4CCCCC4)n3)c2)o1` [Example 15.0, N-(Pentan-3-Yl)-2-(3-(5-(Pentan-3-Ylcarbamoyl)-1-(2-(Piperidin-1-Yl)Ethyl)-1H-1,2,4-Triazol-3-Yl)Phenyl)Oxazole-5-Carboxamide] were 420 nM and 161%.
Turning to `CCC(CC)NC(=O)c1cnc(-c2cccc(-c3nc(C(=O)NC(CC)CC)n(CCOC)n3)c2)o1` [Example 15.1, 2-(3-(1-(2-Methoxyethyl)-5-(Pentan-3-Ylcarbamoyl)-1H-1,2,4-Triazol-3-Yl)Phenyl)-N-(Pentan-3-Yl)Oxazole-5-Carboxamide], the EC50 is 240 nM and the Emax is 155%.
As for `CCOC(=O)Cn1nc(-c2cccc(-c3ncc(C(=O)NC(CC)CC)o3)c2)nc1C(=O)NC(CC)CC` [Example 15.2, Ethyl 2-(5-(Pentan-3-Ylcarbamoyl)-3-(3-(5-(Pentan-3-Ylcarbamoyl)Oxazol-2-Yl)Phenyl)-1 H-1,2,4-Triazol-1-Yl)Acetate], the EC50 amounted to 80 nM and the Emax stood at 80%.
Consider `CCC(CC)NC(=O)c1cnc(-c2cccc(-c3nc(C(=O)NC(CC)CC)n(CCN(C)C)n3)c2)o1` [Example 15.4, 2-(3-(1-(2-(Dimethylamino)Ethyl)-5-(Pentan-3-Ylcarbamoyl)-1H-1,2,4-Triazol-3-Yl)Phenyl)-N-(Pentan-3-Yl)Oxazole-5-Carboxamide], for which the EC50 amounted to 1000 nM and the Emax turned out to be 61%.
Taken in the same sequence, the figures for `CCC(CC)NC(=O)c1cnc(-c2cccc(-c3nnc(C(=O)NC(CC)CC)n3CCOC)c2)o1` [Example 15.5, 2-(3-(4-(2-Methoxyethyl)-5-(Pentan-3-Ylcarbamoyl)-4H-1,2,4-Triazol-3-Yl)Phenyl)-N-(Pentan-3-Yl)Oxazole-5-Carboxamide] were 440 nM and 83%.
Taken in the same sequence, the figures for `CCC(CC)NC(=O)c1cnc(-c2cccc(-c3nc(C(=O)NC(CC)CC)n(CCNCc4ccccc4)n3)c2)o1` [Example 15.6, 2-(3-(1-(2-(Benzylamino)Ethyl)-5-(Pentan-3-Ylcarbamoyl)-1H-1,2,4-Triazol-3-Yl)Phenyl)-N-(Pentan-3-Yl)Oxazole-5-Carboxamide] were 330 nM and 154%.
With `CCC(CC)NC(=O)c1cnc(-c2cccc(-c3nc(C(=O)NC(CC)CC)n(CCN4Cc5ccccc5C4)n3)c2)o1` [Example 15.7, 2-(3-(1-(2-(Isoindolin-2-Yl)Ethyl)-5-(Pentan-3-Ylcarbamoyl)-1H-1,2,4-Triazol-3-Yl)Phenyl)-N-(Pentan-3-Yl)Oxazole-5-Carboxamide], the 50% effective concentration (EC50) came to 320 nM and the Emax was 103%.
For `CCOC(=O)CCCn1nc(-c2cccc(-c3ncc(C(=O)NC(CC)CC)o3)c2)nc1C(=O)NC(CC)CC` [Example 15.8, Ethyl 4-(5-(Pentan-3-Ylcarbamoyl)-3-(3-(5-(Pentan-3-Ylcarbamoyl)Oxazol-2-Yl)Phenyl)-1H-1,2,4-Triazol-1-Yl)Butanoate], the EC50 came to 90 nM and the Emax was 95%.
`CCC(CC)NC(=O)c1cnc(-c2cccc(-c3nc(C(=O)NC(CC)CC)n(CCOCCOCCOC)n3)c2)o1` [Example 15.9, 2-(3-(1-(2-(2-(2-Methoxyethoxy)Ethoxy)Ethyl)-5-(Pentan-3-Ylcarbamoyl)-1H-1,2,4-Triazol-3-Yl)Phenyl)-N-(Pentan-3-Yl)Oxazole-5-Carboxamide]: the EC50 amounted to 1000 nM and the Emax came out at 95%.
Turning to `CCC(CC)NC(=O)c1cnc(-c2cccc(-c3nc(C(=O)NC(CC)CC)n(CC(=O)OC(C)(C)C)n3)c2)o1` [Example 15.10, Tert-Butyl 2-(5-(Pentan-3-Ylcarbamoyl)-3-(3-(5-(Pentan-3-Ylcarbamoyl)Oxazol-2-Yl)Phenyl)-1H-1,2,4-Triazol-1-Yl)Acetate], the concentration for a half-maximal effect (EC50) amounted to 80 nM and the Emax came out at 73%.
